What was measured:
Format in all cases: cell-based, human
[1] = tested on: A2780 cells; test: MTT antiproliferative assay, A2780; conditions: 72 h; for inhibition at 10 µM / inhibition at 30 µM: Homo sapiens, A2780, 72 h, read-out: Growth inhibition, % ± SEM
Protocol: (§1) The antiproliferative properties of the newly synthesized compounds (9–20) and their starting materials (4 and 5) were determined on a panel of human adherent cancer cell lines. MCF-7, MDA-MB-231 and T47D were isolated from breast cancers differing in biochemical background, while A2780 cells were isolated from ovarian cancer. HeLa and SiHa are cervical cancer cell lines positive for HPV-18 and HPV-16, respectively, while C33-A cervical cancer cells are negative for HPV. Moreover, two oropharyngeal cancer cell lines were also utilized: the HPV-negative UPCI-SCC-131 and HPV-16 positive UPCI-SCC-154. The cancer selectivity of compounds was tested on the non-cancerous mouse embryo fibroblast cell line NIH/3T3. All cell lines were purchased from European Collection of Cell Cultures (ECCAC, Salisbury, UK) exception for SiHa and C33-A (American Tissue Culture Collection, Manassas, VA, USA) and HN-SCC-131 and UPCI-SCC-154 (German Collection of Microorganisms and Cell Cultures GmbH, Braunschweig, Germany). Cells were cultivated in minimal essential medium supplemented with 10% fetal bovine serum, 1% non-essential amino acids and an antibiotic–antimycotic mixture. The medium of oropharyngeal cancer cells additionally contained 2.0 mM L-glutamine. All media and supplements were obtained from Lonza Group Ltd., Basel, Switzerland. Near-confluent cancer cells were seeded onto a 96-well microplate at a density of 5,000 cells/well, except for C33-A which were seeded at 10,000/well. After overnight standing, new medium containing the tested compounds at 10 and 30 µM final concentration was added. After incubation for 72 h at 37 °C in humidified air containing 5% CO2, the living cells were assayed by the addition of 20 μL of 5 mg/ml 3-(4,5-dimethylthiazol-2-yl)-2,5-diphenyltetrazolium bromide (MTT) solution. MTT was converted by intact mitochondrial reductase and precipitated as purple crystals during a 4-h contact period. The medium was next removed and the precipitated formazan crystals were dissolved in 100 μL of DMSO during a 60-min period of shaking at 37 ^оC.
(§2) All in vitro experiments were carried out twice with five parallels. Stock solutions of the tested substances (10 mM) were prepared in DMSO. […] Cisplatin (Ebewe Pharma GmbH, Unterach, Austria) was used as positive control.

[2] = tested on: HeLa cells; test: MTT antiproliferative assay, HeLa; conditions: 72 h; for inhibition at 10 µM / inhibition at 30 µM: Homo sapiens; for inhibition at 10 µM: read-out: Growth inhibition, % ± SEM, 10 μM; for inhibition at 30 µM: read-out: Growth inhibition, % ± SEM, 30 μM
Protocol: as §1, §2

[3] = tested on: T47D cells; test: MTT antiproliferative assay, T47D; conditions: 72 h; for inhibition at 10 µM / inhibition at 30 µM: Homo sapiens; for inhibition at 10 µM: read-out: Growth inhibition, % ± SEM, 10 μM; for inhibition at 30 µM: read-out: Growth inhibition, % ± SEM, 30 μM
Protocol: as §1, §2

[4] = tested on: SiHa cells; test: MTT antiproliferative assay, SiHa; conditions: 72 h; for inhibition at 10 µM / inhibition at 30 µM: Homo sapiens; for inhibition at 10 µM: read-out: Growth inhibition, % ± SEM, 10 μM; for inhibition at 30 µM: read-out: Growth inhibition, % ± SEM, 30 μM
Protocol: as §1, §2

[5] = tested on: UPCI-SCC-131 cells; test: MTT antiproliferative assay, UPCI-SCC-131; conditions: 72 h, 72 h; for inhibition at 10 µM / inhibition at 30 µM: Homo sapiens, read-out: Growth inhibition, % ± SEM
Protocol: as §1, §2

[6] = tested on: UPCI-SCC-154 cells; test: MTT antiproliferative assay, UPCI-SCC-154; conditions: 72 h, 72 h; for inhibition at 10 µM / inhibition at 30 µM: Homo sapiens, read-out: Growth inhibition, % ± SEM
Protocol: as §1, §2

[7] = tested on: MCF-7 cells; test: MTT antiproliferative assay, MCF-7; conditions: 72 h; for inhibition at 10 µM / inhibition at 30 µM: Homo sapiens, MCF7, 72 h, read-out: Growth inhibition, % ± SEM
Protocol: as §1, §2

[8] = tested on: C33-A cells; test: MTT antiproliferative assay, C33-A; conditions: 72 h; for inhibition at 10 µM / inhibition at 30 µM: Homo sapiens, C-33-A; for inhibition at 10 µM: read-out: Growth inhibition, % ± SEM, C33-A, 10 μM; for inhibition at 30 µM: read-out: Growth inhibition, % ± SEM, C33-A, 30 μM; for Growth inhibition; % ± SEM: C33-A
Protocol: as §1, §2

[9] = tested on: MDA-MB-231 cells; test: MTT antiproliferative assay, MDA-MB-231; conditions: for inhibition at 10 µM / inhibition at 30 µM: Homo sapiens, MDA-MB-231, 72 h, read-out: Growth inhibition, % ± SEM; for Growth inhibition; % ± SEM: 72 h
Protocol: as §1, §2

Row | SMILES | inhibition at 10 µM ([1]; A2780, 10 μM) | inhibition at 30 µM ([1]; A2780, 30 μM) | inhibition at 10 µM [2] | inhibition at 30 µM [2] | inhibition at 10 µM [3] | inhibition at 30 µM [3] | inhibition at 10 µM [4] | inhibition at 30 µM [4] | inhibition at 10 µM ([5]; UPCI-SCC-131, 10 μM) | inhibition at 30 µM ([5]; UPCI-SCC-131, 30 μM) | inhibition at 10 µM ([6]; UPCI-SCC-154, 10 μM) | inhibition at 30 µM ([6]; UPCI-SCC-154, 30 μM) | inhibition at 10 µM ([7]; MCF-7, 10 μM) | inhibition at 30 µM ([7]; MCF-7, 30 μM) | inhibition at 10 µM [8] | inhibition at 30 µM [8] | inhibition at 10 µM [9] | inhibition at 30 µM [9] | also measured
1 | COc1ccc2c(c1)CC[C@@H]1[C@@H]2CC[C@@]2(C)C(=O)[C@@H](CP(=O)(c3ccccc3)c3ccccc3)C[C@@H]12 [Compound 10, [(3-methoxy-17-oxo-13α-oestra-1,3,5(10)-trien-16β-yl)methyl]diphenylphosphine oxide] | < 20% | 64.2 ± 2.65% | < 20% | 21.5 ± 2.99% | < 20% | 61.1 ± 1.06% | < 20% | < 20% | 39.8 ± 1.36% | 72.9 ± 1.7% | < 20% | 24.3 ± 2.84% | < 20% | 35.9 ± 3.3% | 22 ± 1.84% | 27.2 ± 1.85% | < 20% | < 20% | –
2 | C[C@@]12CC[C@@H]3c4ccc(OCc5ccccc5)cc4CC[C@H]3[C@@H]1C[C@@H](CP(=O)(c1ccccc1)c1ccccc1)C2=O [Compound 11, [(3-benzyloxy-17-oxo-13α-oestra-1,3,5(10)-trien-16α-yl)methyl]diphenylphosphine oxide] | < 20% | 21.9 ± 2.63% | < 20% | 23.8 ± 2.11% | 24.7 ± 1.7% | 59 ± 1.38% | < 20% | 30.2 ± 2.99% | 20.9 ± 1.67% | 62.5 ± 1.4% | < 20% | 38.6 ± 2.6% | < 20% | 37.1 ± 0.72% | < 20% | 40.3 ± 0.95% | < 20% | < 20% | –
3 | Cc1ccc(P(=O)(C[C@@H]2C[C@H]3[C@@H]4CCc5cc(OCc6ccccc6)ccc5[C@H]4CC[C@@]3(C)C2=O)c2ccc(C)cc2)cc1 [Compound 15, [(3-benzyloxy-17-oxo-13α-oestra-1,3,5(10)-trien-16α-yl)methyl]di-p-tolylphosphine oxide] | < 20% | 49.4 ± 2.06% | < 20% | 27.4 ± 1.57% | 39.1 ± 2.01% | 58.5 ± 0.8% | < 20% | < 20% | 24.6 ± 1.39% | 60.2 ± 1.32% | < 20% | 34.7 ± 1.36% | < 20% | < 20% | < 20% | 26.9 ± 0.84% | < 20% | < 20% | –
4 | Cc1ccc(P(=O)(C[C@H]2C[C@H]3[C@@H]4CCc5cc(OCc6ccccc6)ccc5[C@H]4CC[C@@]3(C)C2=O)c2ccc(C)cc2)cc1 [Compound 16, [(3-benzyloxy-17-oxo-13α-oestra-1,3,5(10)-trien-16β-yl)methyl]di-p-tolylphosphine oxide] | < 20% | 67.3 ± 3.04% | < 20% | 31.8 ± 2.27% | 23.6 ± 1.22% | 64.5 ± 1.6% | < 20% | < 20% | 49.5 ± 2.27% | 67.4 ± 1.11% | < 20% | 31.6 ± 2.41% | < 20% | < 20% | < 20% | 59.1 ± 0.69% | < 20% | < 20% | –
5 | COc1ccc2c(c1)CCC1C2CCC2(C)C(=O)C(CP(=O)(c3ccc4ccccc4c3)c3ccc4ccccc4c3)CC12 (stereo not drawn) [Compound 17, [(3-methoxy-17-oxo-13α-oestra-1,3,5(10)-trien-16α-yl)methyl]di(naphtalen-2-yl)phosphine oxide] | < 20% | < 20% | < 20% | < 20% | < 20% | 27.1 ± 2.93% | < 20% | < 20% | 26.5 ± 1.7% | 45.3 ± 1.84% | < 20% | 20.3 ± 2.69% | < 20% | < 20% | < 20% | < 20% | < 20% | < 20% | –
6 | COc1ccc2c(c1)CCC1C2CCC2(C)C(=O)C(CP(=O)(c3ccc4ccccc4c3)c3ccc4ccccc4c3)CC12 (stereo not drawn) [Compound 18, [(3-methoxy-17-oxo-13α-oestra-1,3,5(10)-trien-16β-yl)methyl]di(naphtalen-2-yl)phosphine oxide] | – | – | – | – | – | – | – | – | – | – | – | – | – | – | – | – | – | – | Growth inhibition; % ± SEM ([1]; A2780, 10 μM): – (Inhibition values <20% are not presented.); Growth inhibition; % ± SEM ([1]; A2780, 30 μM): – (Inhibition values <20% are not presented.); Growth inhibition; % ± SEM ([2]; 10 μM): – (Inhibition values <20% are not presented.); Growth inhibition; % ± SEM ([2]; 30 μM): – (Inhibition values <20% are not presented.); Growth inhibition; % ± SEM ([3]; 10 μM): – (Inhibition values <20% are not presented.); Growth inhibition; % ± SEM ([3]; 30 μM): – (Inhibition values <20% are not presented.); Growth inhibition; % ± SEM ([4]; 10 μM): – (Inhibition values <20% are not presented.); Growth inhibition; % ± SEM ([4]; 30 μM): – (Inhibition values <20% are not presented.); Growth inhibition; % ± SEM ([5]; UPCI-SCC-131, 10 μM, 10 µM): 46.39 ± 1.19%; Growth inhibition; % ± SEM ([5]; UPCI-SCC-131, 30 μM, 30 µM): 64.55 ± 1.29%; Growth inhibition; % ± SEM ([6]; UPCI-SCC-154, 10 μM): – (Inhibition values <20% are not presented.); Growth inhibition; % ± SEM ([6]; UPCI-SCC-154, 30 μM, 30 µM): – (Inhibition values <20% are not presented.); Growth inhibition; % ± SEM ([7]; MCF-7, 10 μM): – (Inhibition values <20% are not presented.); Growth inhibition; % ± SEM ([7]; MCF-7, 30 μM): – (Inhibition values <20% are not presented.); Growth inhibition; % ± SEM ([8]; 10 μM): – (Inhibition values <20% are not presented.); Growth inhibition; % ± SEM ([8]; 30 μM): 20.25 ± 1.01%; Growth inhibition; % ± SEM ([9]; MDA-MB-231, 10 μM): – (Inhibition values <20% are not presented.); Growth inhibition; % ± SEM ([9]; MDA-MB-231, 30 μM): – (Inhibition values <20% are not presented.)
7 | CC12CCC3c4ccc(OCc5ccccc5)cc4CCC3C1CC(CP(=O)(c1ccc3ccccc3c1)c1ccc3ccccc3c1)C2=O (stereo not drawn) [Compound 19, [(3-benzyloxy-17-oxo-13α-oestra-1,3,5(10)-trien-16α-yl)methyl]di(naphtalen-2-yl)phosphine oxide] | < 20% | 28.5 ± 2.35% | 31 ± 1.11% | – | 59.4 ± 2.44% | 62.4 ± 1.7% | 23.2 ± 1.36% | – | – | – | 34.3 ± 2.8% | – | 31.8 ± 2.47% | 40.6 ± 1.71% | 28.1 ± 1.39% | 34.7 ± 1.7% | < 20% | < 20% | Growth inhibition; % ± SEM ([2]; 30 μM): 48.89 ± 0.90%; Growth inhibition; % ± SEM ([4]; 30 μM): 40.30 ± 2.00%; Growth inhibition; % ± SEM ([5]; UPCI-SCC-131, 10 μM, 10 µM): – (Inhibition values <20% are not presented.); Growth inhibition; % ± SEM ([5]; UPCI-SCC-131, 30 μM, 30 µM): 40.98 ± 2.94%; Growth inhibition; % ± SEM ([6]; UPCI-SCC-154, 30 μM, 30 µM): 48.81 ± 2.15%

Reference: article PMC8405091, “Microwave-assisted Phospha-Michael addition reactions in the 13α-oestrone series and in vitro antiproliferative properties” (Journal of Enzyme Inhibition and Medicinal Chemistry, 2021)
